Literature values as cited in patent publication US8771712B2, “Topical administration of acyclovir” (Emisphere Technologies, Inc., priority 2006, dated 2014).

Conditions: humans, microdialysis

Acyclovir concentration (dermis) (after removal of the stratum corneum and infusion of 0.0005% noradrenaline): 3.9 µg/mL
Acyclovir in the dermis (application to intact skin): no acyclovir was detected
SMILES: Nc1nc2c(ncn2COCCO)c(=O)[nH]1 [acyclovir, 9-(2-hydroxyethoxymethyl) guanine]
